These results are taken from ChEMBL document CHEMBL5252589, “Bioactive Piperazic Acid-Bearing Cyclodepsipeptides, Lydiamycins E-H, from an Endophytic Streptomyces sp. Associated with Cinnamomum cassia” (J Nat Prod, 2023).

Assay [1] concerns PANC-1. The experiment in a line: Antimetastatic activity in human PANC-1 cells assessed as inhibition of cell migration at 40 uM incubated for 24 hrs by inverted microscope based scratch wound healing assay relative to control. Format: functional.
The test system of assay [2] is PANC-1. As to the kind of experiment: Cytotoxicity against human PANC-1 cells assessed as inhibition of cell growth incubated for 72 hrs by MTT assay. Format: functional, cell-based. Conditions: PANC-1, 72 h. In general terms: Formazan colour is commonly taken as a measure of viable cells.
Assay [3] deals with PANC-1. As to the kind of experiment: Antimetastatic activity in human PANC-1 cells assessed as inhibition of cell migration at 40 uM incubated for 48 hrs by inverted microscope based scratch wound healing assay relative to control. Format: functional.
Assay [4] deals with Mycobacterium tuberculosis. As to the kind of experiment: Antibacterial activity against Mycobacterium tuberculosis H37Rv ATCC 27294 assessed as inhibition of bacterial growth. Format: functional.
Assay [5] relates to PANC-1. As to the kind of experiment: Antimetastatic activity in human PANC-1 cells assessed as inhibition of cell migration at 80 uM incubated for 48 hrs by inverted microscope based scratch wound healing assay relative to control. The format is functional.
In assay [6] the test system is PANC-1. As to the kind of experiment: Antimetastatic activity in human PANC-1 cells assessed as suppression of cell invasion at 40 to 80 uM incubated for 24 hrs by crystal violet staining based transwell assay. The format is functional. Conditions: dose 40-80 µM.
Assay [7] concerns PANC-1. As to the kind of experiment: Antimetastatic activity in human PANC-1 cells assessed as inhibition of cell migration at 80 uM incubated for 24 hrs by inverted microscope based scratch wound healing assay relative to control. Format: functional.
For assay [8], the system named is Mycobacterium tuberculosis. As to the kind of experiment: Antibacterial activity against Mycobacterium tuberculosis mc2 6230. The format is functional.
Assay [9] relates to Mycobacterium tuberculosis. As to the kind of experiment: Antibacterial activity against Mycobacterium tuberculosis H37Rv. Format: functional.
Assay [10] relates to PANC-1. As to the kind of experiment: Antimetastatic activity in human PANC-1 cells assessed as suppression of cell migration incubated for 24 to 48 hrs by inverted microscope based scratch wound healing assay. Format: functional. Conditions: dose 40-80 µM, time 24-48 hrs.

SMILES strings stand for the structures. Converted amounts (≈) assume the structure as drawn. The source made the active and inactive calls.

With `CCCCC[C@H](CC(=O)N1N=C[C@H](O)C[C@H]1C(=O)N[C@H]1COC(=O)[C@@H]2CCCNN2C(=O)[C@H](C)NC(=O)[C@@H](CC(C)C)NC1=O)C(=O)O`, the inhibition at 40 µM in the assay with PANC-1 [1] and with PANC-1 [3] was 11% each time. The IC50 (as a rule, the midpoint of a concentration-inhibition curve) with PANC-1 [2] is over 100 µM. Also, the minimal inhibitory concentration (MIC) (as a rule, the smallest concentration in the dilution series that meets the test's criterion for growth inhibition) in assay [4] was over 20 µg/mL. Moreover, the inhibition – broadly, the drop in the measured response relative to a control, in per cent – at 80 µM with PANC-1 [5] turned out to be 26%; in the assay on PANC-1 [7] it was 19%. Also, the outcome with PANC-1 [6] was Active.

As to `CCCCC[C@H](CC(=O)N1N=CCC[C@H]1C(=O)N[C@H]1COC(=O)[C@@H]2CCCNN2C(=O)[C@H](C)NC(=O)[C@@H](CC(C)C)NC1=O)C(=O)O`, the MIC50 (as a rule, an inhibitory concentration at the 50% level, which refers to growth in some studies and to a panel of isolates in others) was 31 µg/mL (≈ 46.7 µM) in [8] and 12.5 µg/mL (≈ 18.8 µM) in assay [9]. For the same molecule, the inhibition at 40 µM is 36% in the assay with PANC-1 [1] and 11% in the assay on PANC-1 [3]. Besides, in the assay on PANC-1 [2], the 50% inhibitory concentration (IC50) is over 100 µM. In addition, in assay [4], the minimal inhibitory concentration (MIC) is over 20 µg/mL. Moreover, the inhibition at 80 µM came out at 49% in the assay with PANC-1 [5] and 45% in the assay on PANC-1 [7]. In the assay on PANC-1 [6], the outcome was Active.

As to `CCCC[C@H](CC(=O)N1N=CCC[C@H]1C(=O)N[C@H]1COC(=O)[C@@H]2CCCNN2C(=O)[C@H](C)NC(=O)[C@@H](CC(C)C)NC1=O)C(=O)O`, the Activity result with PANC-1 [10] was “Dose-Dependent Effect”. Further, in the assay on PANC-1 [2], the IC50 was over 100 µM. In assay [4], the minimal inhibitory concentration (MIC) is over 20 µg/mL. The result in the assay on PANC-1 [6] was Active.

As for `CC(C)C[C@H]1NC(=O)[C@@H](NC(=O)[C@@H]2CCC=NN2)COC(=O)[C@@H]2CCCNN2C(=O)[C@H](C)NC1=O`, the Activity result in the assay with PANC-1 [10] is “Dose-Dependent Effect”. The IC50 with PANC-1 [2] is over 100 µM. The MIC in assay [4] is over 20 µg/mL. Also, the outcome with PANC-1 [6] was Active.

Turning to `CC(C)C[C@H]1NC(=O)[C@@H](NC(=O)[C@@H]2CCC=NN2C(=O)CCC(=O)O)COC(=O)[C@@H]2CCCNN2C(=O)[C@H](C)NC1=O`, in the assay on PANC-1 [10], the Activity entry was “Dose-Dependent Effect”. For the same molecule, in the assay on PANC-1 [2], the IC50 was over 100 µM. Moreover, the MIC in assay [4] is over 20 µg/mL. The result in the assay on PANC-1 [6] was Active.
